{"source": "paper PMC4277782", "about": "(Journal of the American Chemical Society, 2014)", "system": "ProcM", "experiment": "ProcM reactions with other", "type": "biochemical, Prochlorococcus MIT9313", "settings": "preliminary; data not shown", "data": [{"substance": "ProcA4.3: ProcA substrate (TASGGCDTSMFCY; UniProt Q7V735 65-77, looked up)", "values": [{"measurement": "cyclization kinetics", "result": "some thioether rings form quickly, while others require a much longer time"}]}]}
